Assay results as given in patent US7205413B2, “Solvates and polymorphs of ritonavir and methods of making and using the same” (TransForm Pharmaceuticals, Inc., priority 2002, dated 2007).
“Also recorded” adds a separate entry of the source. Like-named read-outs stand apart in the source and are kept apart here. One block for each compound: values may come before it.

What was measured:
[1] = Thermal Gravimetric Analysis (TGA) weight loss; assay type: physicochemical; settings: heated 10° C./min under dry nitrogen
Source text: TGA data were collected for each of the forms using a Q500 Thermogravimetric Analyzer (TA Instruments, 109 Lukens Drive, New Castle, Del. 19720), which uses as its control software Advantage for QW-Series, version 1.0.0.78, Thermal Advantage Release 2.0, © 2001 (TA instruments—Waters LLC). An aliquot of the sample was transferred into a platinum sample pan (Pan part # 952019.906; TA Instruments, 109 Lukens Drive, New Castle, Del. 19720). The pan was placed on the loading platform and was then automatically loaded in to the apparatus using the control software. Thermograms were typically obtained by individually heating the sample at 10° C./min from 25° C. to 300° C. under flowing dry nitrogen (compressed nitrogen, grade 4.8, BOC Gases, 575 Mountain Avenue, Murray Hill, N.J. 07974-2082), with a sample purge flow rate of 60 ml/min and a balance purge flow rate of 40 ml/min. Thermal transitions (weight changes) were viewed and analyzed using the analysis software Universal Analysis 2000 for Windows 95/95/2000/NT, version 3.1E; Build 3.1.0.40, © 1991–2001 (TA instruments—Waters LLC), provided with the instrument.
Using the DSC and TGA data obtained for Ritonavir Forms III, IV, and V, and published data for Forms I and II, the different thermal characteristics of each of the forms of Ritonavir were determined. These characteristics are provided below in Table 1: […]

[2] = Conversion of solid form when left in the crystallization mixture; assay type: physicochemical
Experimental: In particular: (A) is a representative X-ray diffraction pattern of Ritonavir(I); (B) is an X-ray diffraction pattern of a sample of Ritonavir(V) after being left in the crystallization mixture for approximately 16 hours, with arrows indicating peaks that signify the presence of Ritonavir(I); and (C) is a representative X-ray diffraction pattern of Ritonavir(V). […] In particular: (A) provides a DSC trace of Ritonavir(I); (B) provides a DSC trace of a sample of Ritonavir(V) after being left in the crystallization mixture for approximately 16 hours, wherein two peaks are observed corresponding to Forms I and V; and (C) is a representative DSC trace of Ritonavir(V). Ritonavir(V) is readily prepared from solvent systems (e.g., binary solvent systems) comprised of an acetate and acetonitrile. In particular, it was discovered that after Ritonavir is dissolved in such a solvent system at an elevated temperature (e.g., about 70° C.), the slow cooling of the resulting mixtures (e.g., at a rate of about 5° C./minute until a temperature of about 5° C. is reached) typically yields crystals of Ritonavir(V), which can be isolated by filtration and optionally dried by air. Specific solvent systems comprise from about 25 to about 50 volume percent acetonitrile.

[3] = Conversion of solid form on contact with aqueous media; assay type: physicochemical
Source text: Ritonavir(IV) can be prepared from Ritonavir(III). In a particular method, Ritonavir(III) is contacted with an aqueous medium for an amount of time sufficient to effect the change. For example, Ritonavir(III) placed on a vacuum filter can be washed with deionized water, thereby providing Ritonavir(IV).

[4] = crystalline form, oral; cited from earlier work
[5] = data for Forms I and II obtained from Chemburkar; cited from earlier work

form conversion on exposure to an aqueous environment ([3]; aqueous environment, extended time, about 15 to about 60 minutes): converts to Ritonavir Form I | TGA % weight loss (up to 130° C.) ([1]; listed as IV): 4—9%
SMILES: CC(C)c1nc(CN(C)C(=O)N[C@H](C(=O)N[C@@H](Cc2ccccc2)C[C@H](O)[C@H](Cc2ccccc2)NC(=O)OCc2cncs2)C(C)C)cs1 (relative stereo) [Form IV, 10-hydroxy-2-methyl-5-(1-methylethyl)-1-[2-(1-methylethyl)-4-thiazolyl]-3,6-dioxo-8,11-bis(phenylmethyl)-2,4,7,12-tetraazatridecan-13-oic acid, 5-thiazolylmethyl ester, [5S-(5R*,8R*,10R*,11R*)]]
form conversion on prolonged exposure to an aqueous environment ([3]; prolonged exposure to aqueous environment): converts the compound to Ritonavir Form II

TGA % weight loss (up to 130° C.) ([1]; listed as III): 30—60%
SMILES: CC(C)c1nc(CN(C)C(=O)N[C@H](C(=O)N[C@@H](Cc2ccccc2)C[C@H](O)[C@H](Cc2ccccc2)NC(=O)OCc2cncs2)C(C)C)cs1 (relative stereo) [Form III, 10-hydroxy-2-methyl-5-(1-methylethyl)-1-[2-(1-methylethyl)-4-thiazolyl]-3,6-dioxo-8,11-bis(phenylmethyl)-2,4,7,12-tetraazatridecan-13-oic acid, 5-thiazolylmethyl ester, [5S-(5R*,8R*,10R*,11R*)]]
form conversion while washed or incubated in aqueous media (DSC trace, FIG. 17) ([3]; washed or incubated in aqueous media): conversion of Ritonavir Form III to Form IV, and subsequently to Form I

More lines, now with the values behind:

SMILES: CC(C)c1nc(CN(C)C(=O)N[C@H](C(=O)N[C@@H](Cc2ccccc2)C[C@H](O)[C@H](Cc2ccccc2)NC(=O)OCc2cncs2)C(C)C)cs1 (relative stereo) [Form V, 10-hydroxy-2-methyl-5-(1-methylethyl)-1-[2-(1-methylethyl)-4-thiazolyl]-3,6-dioxo-8,11-bis(phenylmethyl)-2,4,7,12-tetraazatridecan-13-oic acid, 5-thiazolylmethyl ester, [5S-(5R*,8R*,10R*,11R*)]]
TGA % weight loss (up to 130° C.) ([1]; listed as V): <0.3% | form conversion when left in crystallization mixture (X-ray diffraction, DSC) ([2]; approximately 16 hours at nucleation temperature of 5° C.): formed Ritonavir(I) | form conversion on prolonged time in crystallization mixture ([2]; prolonged period of time (hours to days), listed as Ritonavir(V)): form a mixture of Forms V and I; also recorded: provides Ritonavir Form I

SMILES: CC(C)c1nc(CN(C)C(=O)N[C@H](C(=O)N[C@@H](Cc2ccccc2)C[C@H](O)[C@H](Cc2ccccc2)NC(=O)OCc2cncs2)C(C)C)cs1 (single isomer, unassigned) [Form I, 10-hydroxy-2-methyl-5-(1-methylethyl)-1-[2-(1-methylethyl)-4-thiazolyl]-3,6-dioxo-8,11-bis(phenylmethyl)-2,4,7,12-tetraazatridecan-13-oic acid, 5-thiazolylmethyl ester, [5S-(5R*,8R*,10R*,11R*)]]
bioavailability [4]: not bioavailable; also recorded: poor bioavailability | TGA % weight loss (up to 130° C.) [5]: <0.3%

SMILES: CC(C)c1nc(CN(C)C(=O)N[C@H](C(=O)N[C@@H](Cc2ccccc2)C[C@H](O)[C@H](Cc2ccccc2)NC(=O)OCc2cncs2)C(C)C)cs1 (single isomer, unassigned) [Form II, 10-hydroxy-2-methyl-5-(1-methylethyl)-1-[2-(1-methylethyl)-4-thiazolyl]-3,6-dioxo-8,11-bis(phenylmethyl)-2,4,7,12-tetraazatridecan-13-oic acid, 5-thiazolylmethyl ester, [5S-(5R*,8R*,10R*,11R*)]]
bioavailability [4]: poor bioavailability | TGA % weight loss (up to 130° C.) [5]: <0.3%
